Data published in paper PMC3794980, “Identification of Conserved and HLA Promiscuous DENV3 T-Cell Epitopes” (PLoS Neglected Tropical Diseases, 2013).
Where two headings read alike, the source gives them in different places. Where no end group is shown, it is not given here.

Molecular target: T1, HLA-A*0201 (HLA-A2:Ig fusion protein) (Homo sapiens, UniProt P04439, D140Y/D185E/D98H/E176V/E277Q/G131W/G231S/I119V/I121R/I166T/I218V/L300P/L318F/N151K/N90K/P208A/P217A/Q86G/Q94H/R138H/R169H/T345S)
T1 construct: two extracellular portions of the major histocompatibility complex (MHC) class I HLA-A2 domains fused to the […] of a mouse IgG1 antibody; purchased BD Biosciences (HLA-A2:Ig); Fitzgerald Industries (β2-microglobulin)
Assay: Competitive binding assay using HLA-A2:Ig fusion protein (fluorescence polarization)
Protocol: The labeled peptide ([…]) was commercially synthesized by GenScript Corporation as a reference peptide for the binding assay. A fluorescein moiety was introduced into position P8 of the designed peptide ([…]). […] The lyophilized labeled peptide was diluted in 100% DMF (Dimethylformamide) to a final concentration of 10 mM. Subsequent dilutions were carried out using 0.5 mg/ml bovine-γ-globulin (BGG) in 1×PBS.
Soluble HLA-A2:Ig dimer complexes were obtained from BD Biosciences. This fusion protein consists of two extracellular portions of the major histocompatibility complex (MHC) class I HLA-A2 domains fused to the […] of a mouse IgG1 antibody. Additional β2-microglobulin (Fitzgerald Industries) was added to the binding assays to retain the fusion protein in a functional state. […] The competitive binding assays were carried out at room temperature for an incubation period of 3 days.
Both labeled and unlabeled peptides were added to the reaction mixture before the HLA-A2:Ig fusion protein, ensuring that both peptides were presented simultaneously to the HLA molecule. To avoid peptide photobleaching, the reaction mixture was incubated within aluminum foil covered microcentrifuge tubes. After the 3 days incubation period, 20 µl of the reaction mixture was loaded into individual wells of a black, non-binding surface (NBS) 384 well plate (Corning). Controls included only buffer (blank), protein and pFITC. Each experiment was performed in quadruplicate and reported as the mean with standard deviation.

[1] = predicted 9-mer tested, fluorescence polarization competition with fluorescein-labeled […], room temperature, 3 days, quadruplicate, read-out: Binding affinity

Compound | IC50 [1] [nM] | other results
CC(C)C[C@H](NC(=O)[C@@H](N)CCCCN)C(=O)N[C@@H](CC(N)=O)C(=O)N[C@@H](CC(=O)O)C(=O)N[C@@H](Cc1c[nH]c2ccccc12)C(=O)N[C@@H](CC(=O)O)C(=O)N[C@@H](Cc1ccccc1)C(=O)N[C@H](C(=O)N[C@H](C(=O)O)C(C)C)C(C)C [NS3_399–407] | 110 | 
KLTDWDFVV [DENV4] |  | IC50: 61 nM
GLFGKGSLV | 2.9 | 
RTNDWDFVV [DENV2 (1)] |  | IC50 (read-out: IC50): 167 nM
